One test relates to Trichomonas vaginalis. The test is described as follows: Effect on growth of clinically isolated Trichomonas vaginalis in Trichomonas medium F (Neutral Red colour, microscopic observation). Type of test: cell-based. The following applies: for MIC: Trichomonas vaginalis, 72 hours culture, read-out: minimum growth inhibitory concentration (MIC); for Color: Neutral Red marker (yellow = acid production/growth); for Color / Result of microscopic observation: 37° C., 72 hours; for Result of microscopic observation: inverted microscope. Here is the method: The effect on Trichomonas vaginalis was investigated for luliconazole of the compound represented by the general formula (1). That is, 5×10^6 cells of clinically isolated Trichomonas vaginalis were seeded in Trichomonas medium F (6.5 mL, contained in tube) produced by Fujiyakuhin Co., Ltd. containing Neutral Red as a marker, and the preculture was carried out for 72 hours (preculture). It was confirmed that Trichomonas grew, the acid was actively produced, and Neutral Red was changed to be yellow. After that, the preculture was added to Trichomonas medium F by every 100 μL in order to carry out the main culture, to which 0.5 mL of a test solution was added. In this situation, the number of protozoas in the solution of preculture was 1.5×10^5 cells/mL. Three series of test solutions were prepared, in which the luliconazole concentrations were 200 μM (final concentration: 35.2 μM), 100 μM (final concentration: 17.6 μM), and 50 μM (final concentration: 8.8 μM), as luliconazole dissolved in 10% methanol saline solution. 0.5 mL of vehicle was added as a control. As for the vehicle, 10% methanol saline solution (final concentration: 0 μM) was used. Stirring was sufficiently performed after the addition, followed by culturing at 37° C. for 72 hours. After the completion of the cultivation, the color was discriminated, and the state of protozoas was observed by using an inverted microscope.
The same or equivalent investigation as that of Example 1 was performed while changing luliconazole to lanoconazole.

Another test relates to Candida albicans. The test is described as follows: In vitro antifungal activity on Candida albicans, broth microdilution method. Type of test: cell-based. Conditions: 48 hours, 80% growth inhibition, turbidity at 630 nm, read-out: minimum growth inhibitory concentration (MIC80). Here is the method: The minimum growth inhibitory concentration (MIC) was measured by means of the broth microdilution method (medicament ×2 dilution series) based on the use of […] medium (pH 7.0) buffered with 0.165 M morpholinopropanesulfonic acid. 100 μL of test microorganism yeast cells/sterilized physiological saline suspensions (1 to 5×10^3 cells/mL) and 100 μL of media previously added with respective compounds and medium not added with, compounds as a control were dispensed into respective wells of flat-bottom microculture plate.

Test [1] concerns Chlamydia trachomatis (D/UW3/Cx). The test is described as follows: Anti-intracellular parasite action on Chlamydia trachomatis cultured in HeLa 229 host cells, fluorescent staining of inclusion bodies. The format is cell-based. Here is the method:
The anti-intracellular parasite action was investigated by using Chlamydia trachomatis (D/UW3/Cx). That is, Chlamydia trachomatis was cultured in the presence of ×2 dilution series of 8 to 64 μg/ml of luliconazole by using HeLa 229 cells as the host. MEM added with 8% thermally inactivated FBS, to which 1 μg/ml of cyclohexamide was added, was used as the medium, and the culture was performed for 72 hours in 5% carbon dioxide gas at 37° C. After the culture, Chlamydia inclusion bodies were subjected to the fluorescent staining to be apple green with Chlamydia FA reagent “Seiken” (produced by DENKA SEIKEN Co., Ltd.), and the observation was performed by using a fluorescence microscope.

The test system of the next test is Chlamydia. Conditions: stated as known; cited from earlier work.
For the next test, the system named is protozoa. The following applies: stated as known; cited from earlier work.

Converted amounts (≈) assume the structure as drawn. Like-named read-outs stand apart in the source and are kept apart here.

For the compound `N#C/C(=C1/SCC(c2ccccc2Cl)S1)n1ccnc1` (centres unmarked) [Lanoconazole, 4-(2-chlorophenyl)-1,3-dithiolane-2-ylidene-1-imidazolyl acetonitrile], in the test with Trichomonas vaginalis, the MIC is ~17.6 µM (≈ 5.63 µg/mL). The Color result with Trichomonas vaginalis (final concentration 8.8 μM) is listed as “yellow”; with Trichomonas vaginalis (final concentration 17.6 μM) it was “red”; in the test with Trichomonas vaginalis (final concentration 35.2 μM), “red”. Moreover, the “Result of microscopic observation” value is “protozoas were observed slightly” in the test with Trichomonas vaginalis (final concentration 17.6 μM) and “no protozoa was observed” in the test with Trichomonas vaginalis (final concentration 35.2 μM). The “growth of Trichomonas” value in the test with Trichomonas vaginalis (no concentration stated) is given as “inhibits the growth”. Also, the MIC80 in the test with Candida albicans (strain IFO0197, 35° C.) stood at 0.125 µg/mL (≈ 0.391 µM); in the test with Candida albicans (strain IFO0579, 35° C.) it was 0.0625 µg/mL (≈ 0.195 µM); in the test with Candida albicans (strain IFO1269, 35° C.), 0.0625 µg/mL (≈ 0.195 µM); in the test with Candida albicans (strain TIMM3164, 35° C.), 0.5 µg/mL (≈ 1.56 µM).

As to `N#C/C(=C1/SC[C@@H](c2ccc(Cl)cc2Cl)S1)n1ccnc1` [Luliconazole, (R)-(−)-(E)-[4-(2,4-dichlorophenyl)-1,3-dithiolane-2-ylidene]-1-imidazolyl acetonitrile], the MIC in the test on Trichomonas vaginalis was ~8.8 µM (≈ 3.12 µg/mL); in test [1] (Chlamydia trachomatis, HeLa 229 host cells, 72 hours culture, read-out: MIC with respect to Chlamydia trachomatis) it was 32 µg/mL (≈ 90.3 µM). In the test with Trichomonas vaginalis (at 8.8 μM), the “growth of Trichomonas” value is given as “inhibits the growth”. In addition, the Color result in the test with Trichomonas vaginalis (final concentration 8.8 μM) is reported as “yellow”; with Trichomonas vaginalis (final concentration 17.6 μM) it was “red”; with Trichomonas vaginalis (final concentration 35.2 μM), “red”. Also, the “Result of microscopic observation” value with Trichomonas vaginalis (final concentration 8.8 μM) is reported as “protozoas were observed slightly”; with Trichomonas vaginalis (final concentration 17.6 μM), “no protozoa was observed”; with Trichomonas vaginalis (final concentration 35.2 μM), “no protozoa was observed”. Also, the MIC80 turned out to be 0.0625 µg/mL (≈ 0.176 µM) with Candida albicans (strain IFO0197, 35° C.); 0.0313 µg/mL (≈ 0.0883 µM) in the test on Candida albicans (strain IFO0579, 35° C.); 0.0625 µg/mL (≈ 0.176 µM) in the test on Candida albicans (strain IFO1269, 35° C.); 0.5 µg/mL (≈ 1.41 µM) with Candida albicans (strain TIMM3164, 35° C.). For the same compound, the “observation result of Chlamydia inclusion bodies” value in test [1] (treatment with 8 μg/mL, FIG. 1 panel (A)) is on record as “dot-shaped Chlamydia inclusion bodies stained apple green were observed”; in test [1] (treatment with 16 μg/mL, FIG. 1 panel (B)), “dot-shaped Chlamydia inclusion bodies stained apple green were observed”; in test [1] (treatment with 32 μg/mL, FIG. 1 panel (C)), “No inclusion body was found”.

`CCC(C)(C)c1ccc(CC(C)CN2C[C@@H](C)O[C@@H](C)C2)cc1` (some centres unmarked) [amorolfin]: the anticlamydial action result in the test on Chlamydia is given as “do not have”. The antiprotozoal action result with protozoa was “do not have”.

Consider `c1ccc(-c2ccc(C(c3ccccc3)n3ccnc3)cc2)cc1` (centres unmarked) [bifonazole], for which the anticlamydial action entry in the test with Chlamydia was “do not have”. Besides, the antiprotozoal action result with protozoa is listed as “do not have”.

For the compound `CN(Cc1ccc(C(C)(C)C)cc1)Cc1cccc2ccccc12` [butenafine], the anticlamydial action result with Chlamydia is reported as “do not have”. Moreover, the antiprotozoal action result in the test on protozoa is “do not have”.

Regarding `Clc1ccc(COC(Cn2ccnc2)c2ccc(Cl)cc2Cl)c(Cl)c1` (centres unmarked) [miconazole], in the test on Chlamydia, the anticlamydial action result was “do not have”. Further, the antiprotozoal action result in the test with protozoa was “do not have”.

(Values after patent US20150352078A1, “PHARMACEUTICAL COMPOSITION FOR DISEASES CAUSED BY PATHOGENIC MICROORGANISMS SUCH AS CANDIDA” (POLA PHARMA INC., priority 2013, published 2015).)
